Here are results for 31 compounds from US8263592B2, “Equilibrative nucleoside transporter ENT1 inhibitors” (Janssen Pharmaceutica NV, priority 2007, dated 2012).

Structures are written as SMILES. Where a name gives a salt, the structure may show the parent alone.

The target of one data set is T1, human ENT1 transporter (Homo sapiens, UniProt Q99808).
T1 construct: with washed red blood cells diluted 1:200 in assay buffer; from tissue; host or cells: human erythrocytes (washed red blood cells from whole blood)
T1 sequence (Q99808 1-456): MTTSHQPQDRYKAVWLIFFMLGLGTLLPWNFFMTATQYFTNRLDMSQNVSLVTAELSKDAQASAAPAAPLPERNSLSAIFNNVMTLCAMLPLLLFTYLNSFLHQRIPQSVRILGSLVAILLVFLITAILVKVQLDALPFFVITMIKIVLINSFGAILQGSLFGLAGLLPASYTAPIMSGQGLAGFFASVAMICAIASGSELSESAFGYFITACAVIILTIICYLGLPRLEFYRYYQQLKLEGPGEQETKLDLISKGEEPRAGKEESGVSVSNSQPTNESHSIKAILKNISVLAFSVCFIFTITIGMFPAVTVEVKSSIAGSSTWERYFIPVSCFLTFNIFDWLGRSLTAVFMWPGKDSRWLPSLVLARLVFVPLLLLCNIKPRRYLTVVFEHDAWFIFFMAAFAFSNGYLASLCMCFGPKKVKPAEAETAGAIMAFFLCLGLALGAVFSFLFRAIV
In words: hENT1-NBMPR-ERYTH binding assay ([3H]NBMPR, human erythrocytes). Conditions: [3H]NBMPR 1 nM, washed human red blood cells 1:200, 30 minutes at room temperature; pIC50=-log(IC50); read-out: pIC50 values for ENT1 transporter inhibition (converted). The method, then:
D. Pharmacological Data D.1hENT1-NBMPR-ERYTH Assay
The affinity of compounds to the human ENT1 transporter was determined in a binding assay using [^3H]NBMPR (19.9 Ci/mmol) from Moravek Biochemicals (Brea, Calif.). Erythrocytes were isolated from freshly isolated EDTA anti-coagulated human blood. 4 ml human whole blood was diluted in 11 ml wash buffer (20 mM MOPS, 130 mM NaCl, pH 7.4) and centrifuged at 800 g for 5 minutes. Erythrocytes were washed two times with wash buffer by centrifugation at 800 g for 5 minutes and then resuspended in wash buffer to the original whole blood volume and stored at −80° C. Binding experiments were performed at apparent binding equilibrium (30 minutes incubation at room temperature) with washed red blood cells diluted 1:200 in assay buffer (20 mM Tris, 140 mM NaCl, […], 2 mM MgCl2, 0.1 mM EDTA, 5 mM Glucose, pH 7.4) and 1 nM of radioligand. Test compounds were pre-incubated with the red blood cells for 30 minutes at room temperature. Non-specific binding was estimated in the presence of 1 μM Draflazine. The incubation was stopped by rapid filtration using Unifilter-96 GF/C filter plates on a 96-well PerkinElmer Filtermate harvester followed by three washes with ice-cold assay buffer. Bound radioactivity was determined by liquid scintillation counting (Topcount, (PerkinElmer)).

The melting point is the temperature, or range, at which the solid turns liquid. `Cc1c(O)ccc2c1OC1(CCN(CCNC(=O)c3c(Cl)cccc3Cl)CC1)CC2=O` (as salt: hydrochloric acid salt) [Compound 91] returned a melting point of 187.06 °C.
In turn, `COCCCNc1cc2c(cc1C)C(=O)CC1(CCN(CCNC(=O)c3c(Cl)cccc3Cl)CC1)O2` (as salt: oxalate) [Compound 133] displayed a melting point of 157.06 °C.
Still for that read-out and setting: for `COC(=O)[C@H]1CC[C@H](Oc2cc3c(cc2C)C(=O)CC2(CCN(CCNC(=O)c4c(Cl)cccc4Cl)CC2)O3)CC1` (as salt: oxalate) [Compound 199] the value was 191.24 °C.
For the compound `Nc1cc2c(cc1Cl)C(=O)NC1(CCN(CCNC(=O)c3c(Cl)cccc3Cl)CC1)O2` [Compound 1], the melting point came to 245.39 °C. In addition, at human ENT1 transporter, the IC50 is 89.1 nM.
`COCNc1cc2c(cc1Cl)C(=O)NC1(CCN(CCNC(=O)c3c(Cl)cccc3Cl)CC1)O2` [Compound 2]: on human ENT1 transporter, the IC50 was 6.46 nM.
Still for that read-out and setting: the figure for `CC(C)Nc1ccc2c(c1)OC1(CCN(CCNC(=O)c3c(Cl)cccc3Cl)CC1)NC2=O` [Compound 3] is 4.27 nM.
`Nc1cc2c(cc1Cl)CCC1(CCN(CCNC(=O)c3c(Cl)cccc3Cl)CC1)O2` [Compound 10] returned a melting point of 191.14 °C. Besides, on human ENT1 transporter, the IC50 is 18.6 nM.
The like results for `CC(C)(C)OC(=O)N1CCC(Oc2cc3c(cc2Cl)C(=O)NC2(CCN(CCNC(=O)c4c(Cl)cccc4Cl)CC2)O3)CC1` [Compound 22] were, in that order, 172.85 °C and 0.224 nM.
For `O=C1NC2(CCN(CCNC(=O)c3c(Cl)cccc3Cl)CC2)Oc2cc(OC3CCNCC3)c(Cl)cc21` [Compound 23], the IC50 on human ENT1 transporter was 10.2 nM.
The same measure, in the same setting: the figure for `CN1CCC(Oc2cc3c(cc2Cl)C(=O)NC2(CCN(CCNC(=O)c4c(Cl)cccc4Cl)CC2)O3)CC1` [Compound 26] is 11 nM.
For `CC(=O)N1CCC(Oc2cc3c(cc2Cl)C(=O)NC2(CCN(CCNC(=O)c4c(Cl)cccc4Cl)CC2)O3)CC1` [Compound 27], the melting point was 146.87 °C. The IC50 at human ENT1 transporter is 0.776 nM.
As for `CNCCCNc1cc2c(cc1Cl)C(=O)NC1(CCN(CCNC(=O)c3c(Cl)cccc3Cl)CC1)O2` [Compound 43], at human ENT1 transporter, the IC50 was 89.1 nM.
Turning to `O=C1CC2(CCN(CCNC(=O)c3c(Cl)cccc3Cl)CC2)Oc2ccccc21` [Compound 45], the melting point was 197.7 to 198.6 °C. The IC50 on human ENT1 transporter is 417 nM.
In the case of `Cc1c(O)ccc2c1OC1(CCN(CCNC(=O)c3c(Cl)cccc3Cl)CC1)CC2=O` [Compound 91], at human ENT1 transporter, the IC50 is 2.88 nM.
`O=C1CC2(CCN(CCNC(=O)c3c(Cl)cccc3Cl)CC2)Oc2cc(O)ccc21` [Compound 93] returned a melting point of 209.19 °C. Moreover, the IC50 at human ENT1 transporter was 120 nM.
Compound `CC(=O)N1CCC(Nc2cc3c(cc2Cl)C(=O)NC2(CCN(CCNC(=O)c4c(Cl)cccc4Cl)CC2)O3)CC1` [Compound 96] came in with a melting point of 238.27 °C. Besides, the IC50 at human ENT1 transporter was 0.776 nM.
Regarding `CCCCNc1ccc2c(c1)C(=O)CC1(CCN(CCNC(=O)c3c(Cl)cccc3Cl)CC1)O2` [Compound 97], the melting point was in the range of 153.71 to 156.93 °C. The IC50 at human ENT1 transporter is 12 nM.
As to `CC(=O)N1CCC(Oc2cc3c(cc2Cl)C=CC2(CCN(CCNC(=O)c4c(Cl)cccc4Cl)CC2)O3)CC1` [Compound 108], the IC50 at human ENT1 transporter was 0.0447 nM.
The same measure, in the same setting: for `CC(=O)N1CCC(Oc2cc3c(cc2Cl)CCC2(CCN(CCNC(=O)c4c(Cl)cccc4Cl)CC2)O3)CC1` [Compound 117] the value was 0.589 nM; for `Cc1cc2c(cc1NC1CCCC1)OC1(CCN(CCNC(=O)c3c(Cl)cccc3Cl)CC1)CC2=O` [Compound 127], 0.776 nM.
Compound `Nc1ccc2c(c1Cl)OC1(CCN(CCNC(=O)c3c(Cl)cccc3Cl)CC1)CC2=O` [Compound 130] came in with a melting point of 236.63 °C. Further, the IC50 at human ENT1 transporter is 9.77 nM.
For `COCCCNc1cc2c(cc1C)C(=O)CC1(CCN(CCNC(=O)c3c(Cl)cccc3Cl)CC1)O2` [Compound 133], the IC50 on human ENT1 transporter was 1.82 nM.
Still for that read-out and setting: for `Cc1cc2c(cc1NCCCO)OC1(CCN(CCNC(=O)c3c(Cl)cccc3Cl)CC1)CC2=O` [Compound 141] the value was 3.72 nM.
`Cc1cccc(C)c1C(=O)NCCN1CCC2(CC1)NC(=O)c1cc(Cl)c(OC(C)C)cc1O2` [Compound 151] came in with a melting point of 201.61 to 204.2 °C. Also, the IC50 at human ENT1 transporter was 22.9 nM.
`Cc1cc(OC2CCCC2)c2c(c1)C(=O)CC1(CCN(CCNC(=O)c3c(Cl)cccc3Cl)CC1)O2` [Compound 189]: the melting point is 135.95 °C. In addition, at human ENT1 transporter, the IC50 was 2.57 nM.
For `COC(=O)[C@H]1CC[C@H](Oc2cc3c(cc2C)C(=O)CC2(CCN(CCNC(=O)c4c(Cl)cccc4Cl)CC2)O3)CC1` [Compound 199], the IC50 on human ENT1 transporter was 0.343 nM.
`O=C1NC2(CCN(CCNC(=O)c3c(Cl)cccc3Cl)CC2)Oc2c1cc(Cl)cc2N1CCOCC1` [Compound 205] yielded a melting point of 245.16 °C. Besides, the IC50 at human ENT1 transporter is 107 nM.
For `O=C1CC2(CCN(CCNC(=O)c3c(Cl)cccc3Cl)CC2)Oc2c1ccc(NC1CCCC1)c2Cl` [Compound 208], the IC50 on human ENT1 transporter was 1.51 nM.
Same read-out and setting: the figure for `COC(=O)[C@H]1CC[C@@H](Oc2cc3c(cc2C)C(=O)CC2(CCN(CCNC(=O)c4c(Cl)cccc4Cl)CC2)O3)CC1` [Compound 222] is 0.531 nM.
Take `O=C1NC2(CCN(CCNC(=O)c3c(Cl)cccc3Cl)CC2)Oc2c(NC3CCCC3)cc(Cl)cc21` [Compound 223]: the melting point stood at 238.02 °C. For the same compound, the IC50 on human ENT1 transporter is 3.8 nM.
As for `CNc1cc2c(cc1Cl)CCC1(CCN(CCNC(=O)c3c(Cl)cccc3Cl)CC1)O2` [Compound 239], the IC50 at human ENT1 transporter is 1.53 nM.
